Measurements published in article PMC5845353, “The selective cathepsin K inhibitor MIV-711 attenuates joint pathology in experimental animal models of osteoarthritis” (Journal of Translational Medicine, 2018).
Marks after values point to notes of the source that are not given here.

Tested on: rabbits subjected to anterior cruciate ligament transection (ACLT)
Experiment: Rabbit ACLT study, µCT of subchondral bone plate
Type: in vivo
Excerpt: The animals were acquired following review and approval by the Institutional Animal Care and Use Committee (IACUC) at Numira (Salt Lake City, UT). The protocol was also reviewed and approved by the IACUC at Ibex Preclinical Research Inc. (Logan, UT). Male, New Zealand White rabbits (n = 32) were purchased from the Western Oregon Rabbit Co. (Philomath, OR). The animals were approximately 9 months old, weighed 3.7–4.5 kg at the start of the experiment and were randomized into four treatment groups based on body weight.
Pre-operative butorphanol (0.5–1.0 mg/kg, i.m.) for analgesia and glycopyrrolate (~ 0.1 mg/kg i.m.) were administered up to 15 min prior to induction. Anesthesia was induced by a mixture of ketamine (20–40 mg/kg, i.m.) and xylazine (5–10 mg/kg, i.m.), followed by placement of an endotracheal tube. General anesthesia was maintained with isoflurane. Perioperative cefazolin (40 mg/kg, i.v.) was administered, and […] (0.2 mg/kg, i.v.) was administered to reverse the effects of xylazine after endotracheal intubation was complete. A fentanyl patch (25 µg/h) was placed on a clipped area of the skin to provide post-operative analgesia. An incision of 1.5–2.5 cm was made in the skin over the medial side of the right knee under aseptic conditions. The patella was dislocated laterally and the knee placed in full flexion. The anterior cruciate ligament (ACL) was visualized and transected with an appropriate blade. In sham animals, the ACL was visualized but not transected. The joint was irrigated with sterile saline and closed. The muscle and skin were closed with suture and/or surgical glue. Butorphanol (0.5–1 mg/kg, i.m.) was administered after extubation to provide supplemental analgesia. The animals were then individually housed in stainless steel or plastic cages.
Starting 1 week after sham operation or ACLT, animals were dosed daily for 7 weeks by oral gavage with either MIV-711 (synthesized by Medivir and given as a suspension in 1% Methocel A4C in water) or vehicle (1% Methocel A4C in water) at a dose volume of 4 mL/kg. The four treatment groups (n = 7 in each group) were: (1) sham + vehicle; (2) ACLT + vehicle; (3) ACLT + MIV-711, 30 µmol/kg (low dose) and (4) ACLT + MIV-711, 100 µmol/kg (high dose).
Femora and tibias from all animals were subjected to µCT scanning without and with contrast reagent, to visualize bone and cartilage, respectively. Samples were scanned on a high-resolution, volumetric µCT scanner (μCT40, ScanCo Medical, Zurich, CH). The image data was acquired with the following parameters: 36 μm isotropic voxel resolution at 300 ms exposure time, 2000 views and 1 frame per view. Each sample was scanned twice, once for acquiring bone data and once for soft tissue data. After the bone scans, the knees were stained using hexabrix for contrast-enhanced imaging of the cartilage. The µCT-generated DICOM files were used to analyze the samples and to create volume renderings of the regions of interest (ROI). The raw data files were converted into a file format compatible with the segmentation software VHLab (Numira). VHLab was used for segmenting out the regions of interest (osteophyte, cartilage, and subchondral bone) for the femur and tibia of each sample. A region spanning 9 mm of the articulating surface of the femur and 6.5 mm of the tibia was selected for segmenting out the cartilage and subchondral bone in the anterior–posterior direction. After the segmentation process, the voxel count associated with each of the regions of interest was calculated using VHLab. The voxel count was then multiplied by the cubic voxel resolution to obtain volume measurements for the different ROI. Cartilage thickness was calculated using SCIRun (Scientific Computing and Imaging Institute, University of Utah). The distance from the bone to the outer surface of the articulating cartilage was calculated. An image was generated that translates the distances into a color map for viewing the thickness along the length of the cartilage. […]

SMILES: C#C[C@@H]1CN(C(=O)[C@H](CC(C)C)NC(=O)c2ccc(-c3nc(N4CCN(C)CC4)sc3F)cc2)[C@@H]2C(=O)CO[C@H]12 [MIV-711]
- Subchondral bone plate Thickness, Lateral (Femur, high dose 100 µmol/kg): 321 ± 11 µm
- Subchondral bone plate Thickness, Medial (Femur, high dose 100 µmol/kg): 388 ± 9 µm
- Subchondral bone plate Thickness, Total (Femur, high dose 100 µmol/kg): 353 ± 8 µm
- Subchondral bone plate Volume, Lateral (Femur, high dose 100 µmol/kg): 25.7 ± 1.2* mm^3
- Subchondral bone plate Volume, Medial (Femur, high dose 100 µmol/kg): 29.9 ± 1.0 mm^3
- Subchondral bone plate Volume, Total (Femur, high dose 100 µmol/kg): 55.6 ± 2.0* mm^3
- Subchondral bone plate Thickness, Lateral (Femur, low dose 30 µmol/kg): 316 ± 10 µm
- Subchondral bone plate Thickness, Medial (Femur, low dose 30 µmol/kg): 380 ± 13 µm
- Subchondral bone plate Thickness, Total (Femur, low dose 30 µmol/kg): 347 ± 10 µm
- Subchondral bone plate Volume, Lateral (Femur, low dose 30 µmol/kg): 25.0 ± 0.6* mm^3
- Subchondral bone plate Volume, Medial (Femur, low dose 30 µmol/kg): 29.4 ± 0.8 mm^3
- Subchondral bone plate Volume, Total (Femur, low dose 30 µmol/kg): 54.4 ± 0.8* mm^3
- Subchondral bone plate Thickness, Lateral (Tibia, high dose 100 µmol/kg): 353 ± 12 µm
- Subchondral bone plate Thickness, Medial (Tibia, high dose 100 µmol/kg): 462 ± 13 µm
- Subchondral bone plate Thickness, Total (Tibia, high dose 100 µmol/kg): 401 ± 8 µm
- Subchondral bone plate Volume, Lateral (Tibia, high dose 100 µmol/kg): 20.7 ± 1.0* mm^3
- Subchondral bone plate Volume, Medial (Tibia, high dose 100 µmol/kg): 20.6 ± 0.5 mm^3
- Subchondral bone plate Volume, Total (Tibia, high dose 100 µmol/kg): 41.2 ± 0.9* mm^3
- Subchondral bone plate Thickness, Lateral (Tibia, low dose 30 µmol/kg): 326 ± 18 µm
- Subchondral bone plate Thickness, Medial (Tibia, low dose 30 µmol/kg): 452 ± 15 µm
- Subchondral bone plate Thickness, Total (Tibia, low dose 30 µmol/kg): 383 ± 15 µm
- Subchondral bone plate Volume, Lateral (Tibia, low dose 30 µmol/kg): 18.5 ± 1.3* mm^3
- Subchondral bone plate Volume, Medial (Tibia, low dose 30 µmol/kg): 20.6 ± 0.8 mm^3
- Subchondral bone plate Volume, Total (Tibia, low dose 30 µmol/kg): 39.1 ± 2.0* mm^3
- femur subchondral bone plate total thickness, difference vs. sham (low dose 30 µmol/kg): 0%
- tibia subchondral bone plate total thickness, difference vs. sham (low dose 30 µmol/kg): 0%
